One assay deals with T1, KRAS^G12R in KP-2 cells (Homo sapiens, UniProt P01116, G12R).
T1 construct: host or cells: KP-2
Description: Endogenous KRAS degradation by Western blot in KP-2 cells. The assay is classed as cell-based. Particulars: KP-2 (G12R).

For the next assay, the target named is T2, KRAS^Q61L in SW948 cells (Homo sapiens, UniProt P01116, Q61L).
T2 construct: host or cells: SW948
Nature of the assay: Endogenous KRAS degradation by Western blot in SW948 cells. The format is cell-based.

Another assay has as its system A375 cells. Nature of the assay: CellTiter-Glo anti-proliferation, A375 (KRAS independent). The format is cell-based, human. On the technique in general: ATP-based viability assays read luminescence as a measure of living cells.

Structures are written as SMILES. Entries after “also recorded” stand apart in the source; their conditions may differ. Where two headings read alike, the source gives them in different places.

This is an account of results in paper PMC12616682, “Identification of a Highly Cooperative PROTAC Degrader Targeting GTP-Loaded KRAS(On) Alleles” (Journal of the American Chemical Society, 2025).

What is called Dmax is the largest share of the target that was removed. By DC50 is commonly meant the concentration at which degradation of the target reaches its halfway point. One may read the IC50 as the concentration that inhibits the measured activity by half.

T1 sequence (P01116 1-188 isoform P01116-2 G12R): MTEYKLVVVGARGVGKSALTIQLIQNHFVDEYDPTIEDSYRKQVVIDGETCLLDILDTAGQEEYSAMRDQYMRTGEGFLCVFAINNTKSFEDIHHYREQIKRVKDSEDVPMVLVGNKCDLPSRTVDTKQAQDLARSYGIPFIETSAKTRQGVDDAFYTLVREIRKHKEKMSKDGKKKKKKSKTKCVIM
T2 sequence (P01116 1-188 isoform P01116-2 Q61L): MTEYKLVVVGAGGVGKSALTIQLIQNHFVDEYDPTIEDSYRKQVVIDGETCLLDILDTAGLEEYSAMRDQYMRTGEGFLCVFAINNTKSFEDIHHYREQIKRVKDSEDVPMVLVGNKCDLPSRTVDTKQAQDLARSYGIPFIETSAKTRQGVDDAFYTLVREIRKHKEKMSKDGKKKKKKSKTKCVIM

Turning to `CC(C)C(C(=O)N1CC(O)CC1C(=O)NCc1ccc2cnn(C)c2c1)n1nnc2c1CCC(CCCN1CCCN(c3nccc(-c4noc(C5(C)CCCc6sc(N)c(C#N)c65)n4)n3)C(C)C1)C2` (stereo not shown) [ACBI4], the Dmax on KRAS^G12R in KP-2 cells (4 h, read-out: DMax 4h) turned out to be 91%; at KRAS^G12R in KP-2 cells (18 h, read-out: DMax 18h), 82%; at KRAS^Q61L in SW948 cells (4 h, read-out: DMax 4h), 58%; at KRAS^Q61L in SW948 cells (18 h, read-out: DMax 18h) it was 65%. For the same molecule, the DC50 at KRAS^G12R in KP-2 cells (4 h, read-out: Dc50 4h) is 316 nM; at KRAS^G12R in KP-2 cells (18 h, read-out: Dc50 18h), 151 nM; at KRAS^Q61L in SW948 cells (4 h, read-out: Dc50 4h), 300 nM; on KRAS^Q61L in SW948 cells (18 h, read-out: Dc50 18h), 1000 nM. In the assay on A375 cells (Homo sapiens, A-375, 144 h, A375 (KRAS WT; KRAS independent), read-out: CTG 144h Ic50), the IC50 was over 3000 nM. In the assay with A375 cells (KRAS-independent A375 cell line), the “antiproliferative effect (in words)” value is “No antiproliferation; also recorded: No antiproliferative effect was observed”.
